37 compounds from patent US20200325127A1, “PYRIDIN-3-YL ACETIC ACID DERIVATIVES AS INHIBITORS OF HUMAN IMMUNODEFICIENCY VIRUS REPLICATION” (priority 2016, published 2020) can be followed below.

The structures appear in SMILES notation. Bounds are passed on as bounds.

The test system of the first test is NL-RLuc virus. The test can be described thus: Inhibition of HIV replication (NL-RLuc luciferase reporter virus in MT-2 cells). Particulars: Human immunodeficiency virus 1, MT2, 120 h, read-out: Activity. In kind it is cell-based. An excerpt:
Inhibition of HIV replication: A recombinant NL-RLuc proviral clone was constructed in which a section of the nef gene from NL4-3 was replaced with the Renilla Luciferase gene. This virus is fully infectious and can undergo multiple cycles of replication in cell culture. In addition, the luciferous reporter provides a simple and easy method for quantitating the extent of virus growth and consequently, the antiviral activity of test compounds. The plasmid pNLRLuc contains the proviral NL-Rluc DNA cloned into pUC18 at the PvuII site. The NL-RLuc virus was prepared by transfection of 293T cells with the plasmid pNLRLuc. Transfections were performed using the LipofectAMINE PLUS kit from Invitrogen (Carlsbad, Calif.) according to the manufacturer and the virus generated was titered in MT-2 cells. For susceptibility analyses, the titrated virus was used to infect MT-2 cells in the presence of compound, and after 5 days of incubation, cells were processed and quantitated for virus growth by the amount of expressed luciferase. Assay media was RPMI 1640 supplemented with 10% heat inactivated fetal bovine serum (FBS), 100 units/ml penicillin G/100 units/ml streptomycin, 10 mM HEPES buffer pH 7.55 and 2 mM L-glutamine. The results from at least 2 experiments were used to calculate the EC50 values. Luciferase was quantitated using the Dual Luciferase kit from Promega (Madison, Wis.). Susceptibility of viruses to compounds was determined by incubation in the presence of serial dilutions of the compound. The 50% effective concentration (EC50) was calculated by using the exponential form of the median effect equation where (Fa)=1/[1+(ED50/drug conc.)^m](Johnson V A, Byington R T. Infectivity Assay. In Techniques in HIV Research. ed. Aldovini A, Walker B D. 71-76. New York: Stockton Press. 1990). Activity equal to A refers to a compound having an EC50≤100 nM, while B and C denote compounds having an EC50 between 100 nM and 1 uM (B) or >1 uM (C).
On to `COc1cc(N2CCc3cc(-c4c(C)nc(C)c([C@H](OC(C)(C)C)C(=O)O)c4N4CCC(C)(C)CC4)ccc3C2)ncn1` [Compound 31], for which the EC50 was < 0.1 µM. On the same count and under the same terms, under `Cc1nc(C)c([C@H](OC(C)(C)C)C(=O)O)c(N2CCC(C)(C)CC2)c1-c1ccc2c(c1)CCN(c1nccs1)C2` [Compound 6] stands < 0.1 µM. Turning to `Cc1nc(C)c([C@H](OC(C)(C)C)C(=O)O)c(N2CCC(C)(C)CC2)c1-c1ccc2c(c1)CCN(c1cc(C3CC3)ncn1)C2` [Compound 43], the EC50 is < 0.1 µM. Still for that read-out and setting: next, `Cc1nc(C)c([C@H](OC(C)(C)C)C(=O)O)c(N2CCC(C)(C)CC2)c1-c1ccc2c(c1)CCN(c1cc(Cl)ncn1)C2` [Compound 27]: < 0.1 µM; `Cc1nc(C)c([C@H](OC(C)(C)C)C(=O)O)c(N2CCC(C)(C)CC2)c1-c1ccc2c(c1)CCN(c1ncc(C#N)cn1)C2` [Compound 22]: 0.1 to 1 µM; `Cc1nc(C)c([C@H](OC(C)(C)C)C(=O)O)c(N2CCC(C)(C)CC2)c1-c1ccc2c(c1)CCN(c1cc(Nc3ccccc3)ncn1)C2` [Compound 53]: < 0.1 µM. Same read-out and setting: next, `Cc1nc(C(F)(F)F)nc(N2CCc3cc(-c4c(C)nc(C)c([C@H](OC(C)(C)C)C(=O)O)c4N4CCC(C)(C)CC4)ccc3C2)c1C` [Compound 58]: < 0.1 µM; `Cc1nc(C)c([C@H](OC(C)(C)C)C(=O)O)c(N2CCC(C)(C)CC2)c1-c1ccc2c(c1)CCN(c1ccnc(N)n1)C2` [Compound 67]: < 0.1 µM. Still for that read-out and setting: next, `Cc1nc(C)c([C@H](OC(C)(C)C)C(=O)O)c(N2CCC(C)(C)CC2)c1-c1ccc2c(c1)CCN(c1cc(Cl)cnn1)C2` [Compound 28]: < 0.1 µM. Turning to `COc1cc(N2CCc3cc(-c4c(C)nc(C)c([C@H](OC(C)(C)C)C(=O)O)c4N4CCC(C)(C)CC4)ccc3C2)nc(OC)n1` [Compound 14], the EC50 is < 0.1 µM. Regarding `Cc1nc(C)c([C@H](OC(C)(C)C)C(=O)O)c(N2CCC(C)(C)CC2)c1-c1ccc2c(c1)CCN(c1ncc(Cl)cn1)C2` [Compound 23], the EC50 was < 0.1 µM. Same read-out and setting: under `Cc1nc(C)c([C@H](OC(C)(C)C)C(=O)O)c(N2CCC(C)(C)CC2)c1-c1ccc2c(c1)CCN(c1ccnc(C3CC3)n1)C2` [Compound 59] stands < 0.1 µM. Still for that read-out and setting: next, `COc1cc(N2CCc3cc(-c4c(C)nc(C)c([C@H](OC(C)(C)C)C(=O)O)c4N4CCC(C)(C)CC4)ccc3C2)nc(SC)n1` [Compound 62]: < 0.1 µM; `Cc1nc(C)c([C@H](OC(C)(C)C)C(=O)O)c(N2CCC(C)(C)CC2)c1-c1ccc2c(c1)CCN(c1ncccc1C(=O)O)C2` [Compound 16]: 0.1 to 1 µM. `Cc1nc(C)c([C@H](OC(C)(C)C)C(=O)O)c(N2CCC(C)(C)CC2)c1-c1ccc2c(c1)CCN(c1ncc(F)cn1)C2` [Compound 21]: the EC50 is < 0.1 µM.

In the case of `Cc1cnc(N2CCc3cc(-c4c(C)nc(C)c([C@H](OC(C)(C)C)C(=O)O)c4N4CCC(C)(C)CC4)ccc3C2)nc1` [Compound 17], the EC50 is < 0.1 µM. On the same count and under the same terms, next, `Cc1nc(C)c([C@H](OC(C)(C)C)C(=O)O)c(N2CCC(C)(C)CC2)c1-c1ccc2c(c1)CCN(c1nnc(-c3ccccc3)cc1C#N)C2` [Compound 68]: < 0.1 µM; `Cc1nc(C)c([C@H](OC(C)(C)C)C(=O)O)c(N2CCC(C)(C)CC2)c1-c1ccc2c(c1)CCN(c1cc(-n3ccnc3)ncn1)C2` [Compound 49]: < 0.1 µM. On the same count and under the same terms, under `COc1nc(O)nc(N2CCc3cc(-c4c(C)nc(C)c([C@H](OC(C)(C)C)C(=O)O)c4N4CCC(C)(C)CC4)ccc3C2)n1` [Compound 13] stands 0.1 to 1 µM. Same read-out and setting: under `Cc1nc(C)c([C@H](OC(C)(C)C)C(=O)O)c(N2CCC(C)(C)CC2)c1-c1ccc2c(c1)CCN(c1ccc(C(F)(F)F)nn1)C2` [Compound 35] stands < 0.1 µM; under `Cc1nc(C)c([C@H](OC(C)(C)C)C(=O)O)c(N2CCC(C)(C)CC2)c1-c1ccc2c(c1)CCN(c1ncncc1F)C2` [Compound 25], < 0.1 µM. Consider `Cc1nc(C)c([C@H](OC(C)(C)C)C(=O)O)c(N2CCC(C)(C)CC2)c1-c1ccc2c(c1)CCN(c1ncnc(N)c1C)C2` [Compound 55], for which the EC50 was < 0.1 µM. Still for that read-out and setting: under `Cc1nc(C)c([C@H](OC(C)(C)C)C(=O)O)c(N2CCC(C)(C)CC2)c1-c1ccc2c(c1)CCN(c1cc(N3CCCC3)ncn1)C2` [Compound 48] stands < 0.1 µM; under `COc1cc(N2CCc3cc(-c4c(C)nc(C)c([C@H](OC(C)(C)C)C(=O)O)c4N4CCC(C)(C)CC4)ccc3C2)nc(N)n1` [Compound 56], < 0.1 µM; under `CCc1cnc(N2CCc3cc(-c4c(C)nc(C)c([C@H](OC(C)(C)C)C(=O)O)c4N4CCC(C)(C)CC4)ccc3C2)nc1` [Compound 33], < 0.1 µM. On the same count and under the same terms, next, `Cc1nc(C)c([C@H](OC(C)(C)C)C(=O)O)c(N2CCC(C)(C)CC2)c1-c1ccc2c(c1)CCN(c1cc(N)ncn1)C2` [Compound 42]: < 0.1 µM; `Cc1nc(C)c([C@H](OC(C)(C)C)C(=O)O)c(N2CCC(C)(C)CC2)c1-c1ccc2c(c1)CCN(c1nnc(-c3ccccc3)cc1C(N)=O)C2` [Compound 9]: < 0.1 µM; `Cc1nc(C)c([C@H](OC(C)(C)C)C(=O)O)c(N2CCC(C)(C)CC2)c1-c1ccc2c(c1)CCN(c1ncnc3c1CCCC3)C2` [Compound 15]: < 0.1 µM. `Cc1nc(C)c([C@H](OC(C)(C)C)C(=O)O)c(N2CCC(C)(C)CC2)c1-c1ccc2c(c1)CCN(c1ccncn1)C2` [Compound 20]: the EC50 is < 0.1 µM. Regarding `Cc1ncnc(N2CCc3cc(-c4c(C)nc(C)c([C@H](OC(C)(C)C)C(=O)O)c4N4CCC(C)(C)CC4)ccc3C2)c1F` [Compound 24], the EC50 was < 0.1 µM.

The same test, now with this note: Human immunodeficiency virus 1, MT2, 120 h, read-out: EC50 μM.
Regarding `Cc1nc(C)c([C@H](OC(C)(C)C)C(=O)O)c(N2CCC(C)(C)CC2)c1-c1ccc2c(c1)CCN(c1nccs1)C2` [Compound 6], the EC50 came to 0.007 µM. On the same count and under the same terms, next, `COc1ccc2ncnc(N3CCc4cc(-c5c(C)nc(C)c([C@H](OC(C)(C)C)C(=O)O)c5N5CCC(C)(C)CC5)ccc4C3)c2c1` [Compound 81]: 0.002 µM.

As for `COc1cc(N2CCc3cc(-c4c(C)nc(C)c([C@H](OC(C)(C)C)C(=O)O)c4N4CCC(C)(C)CC4)ccc3C2)nc(SC)n1` [Compound 62], the EC50 is 0.004 µM. Same read-out and setting: next, `COc1cc2ncnc(N3CCc4cc(-c5c(C)nc(C)c([C@H](OC(C)(C)C)C(=O)O)c5N5CCC(C)(C)CC5)ccc4C3)c2cc1OC` [Compound 84]: 0.002 µM.

For the compound `COc1nc(O)nc(N2CCc3cc(-c4c(C)nc(C)c([C@H](OC(C)(C)C)C(=O)O)c4N4CCC(C)(C)CC4)ccc3C2)n1` [Compound 13], the EC50 amounted to 0.278 µM. Same read-out and setting: next, `Cc1nc(C)c([C@H](OC(C)(C)C)C(=O)O)c(N2CCC(C)(C)CC2)c1-c1ccc2c(c1)CCN(c1ccc(C(F)(F)F)nn1)C2` [Compound 35]: 0.01 µM; `Cc1nc(C)c([C@H](OC(C)(C)C)C(=O)O)c(N2CCC(C)(C)CC2)c1-c1ccc2c(c1)CCN(c1ncnc(N)c1C)C2` [Compound 55]: 0.004 µM.

Regarding `Cc1nc(C)c([C@H](OC(C)(C)C)C(=O)O)c(N2CCC(C)(C)CC2)c1-c1ccc2c(c1)CCN(c1cc(N3CCCC3)ncn1)C2` [Compound 48], the EC50 was determined as 0.003 µM. Same read-out and setting: next, `Cc1nc(C)c([C@H](OC(C)(C)C)C(=O)O)c(N2CCC(C)(C)CC2)c1-c1ccc2c(c1)CCN(c1nc(N(C)C)c3ccccc3n1)C2` [Compound 82]: 0.001 µM.

For `Cc1nc(C)c([C@H](OC(C)(C)C)C(=O)O)c(N2CCC(C)(C)CC2)c1-c1ccc2c(c1)CCN(c1nccc3cccnc13)C2` [Compound 77], the EC50 was 0.002 µM. The same measure, in the same setting: under `Cc1nc(C)c([C@H](OC(C)(C)C)C(=O)O)c(N2CCC(C)(C)CC2)c1-c1ccc2c(c1)CCN(c1cnc3ccccc3n1)C2` [Compound 71] stands 0.01 µM; under `Cc1nc(C)c([C@H](OC(C)(C)C)C(=O)O)c(N2CCC(C)(C)CC2)c1-c1ccc2c(c1)CCN(c1ccncn1)C2` [Compound 20], 0.002 µM; under `Cc1nc(C)c([C@H](OC(C)(C)C)C(=O)O)c(N2CCC(C)(C)CC2)c1-c1ccc2c(c1)CCN(c1ncnc3ccc(F)cc13)C2` [Compound 85], 0.002 µM. The same measure, in the same setting: next, `COc1ccc2c(N3CCc4cc(-c5c(C)nc(C)c([C@H](OC(C)(C)C)C(=O)O)c5N5CCC(C)(C)CC5)ccc4C3)ncnc2c1` [Compound 80]: 0.001 µM.
